Source: patent publication US10995101B2, “2-oxo-thiazole derivatives as A2A inhibitors and compounds for use in the treatment of cancers” (iTeos Therapeutics SA, priority 2017, dated 2021)

Target: A2A receptor (Homo sapiens, UniProt P29274)
Test: Inhibition of cAMP production in HEK cells
Type: cell-based
Details: HEK-293 cells with A2A receptor
Experimental: When the A2A receptor is activated, is induces the production of cAMP.
HEK-293 cells with a stable transfection of A2A receptor were bought from PerkinElmer® (# ES-011-C). […] Fresh media without the selection marker was added on the day immediately before the experiment to stop selection pressure.
Stimulation buffer b) mimics the human situation by increasing the amount of albumin present in the assay.
Compounds of the present invention were diluted 100× in either of the buffers depending on the assay performed. […] The total volume of the reaction was 20 μl (10 μl of cells, 5 μl of antagonist and 5 μl of agonist). The reaction was finalized by adding 10 μl of 4× EU-cAMP tracer working solution and 10 μl of 4× ULight-anti-cAMP working solution. The TR-FRET signal was measured after 1 hour using a Spectramax Paradigm (Molecular Devices).

[1] = IC50 (nM) (3 nM NECA as agonist, 0.1% BSA), 3 nM NECA as agonist, 0.1% BSA
[2] = IC50 (nM) (5 nM NECA as agonist, 2% HSA), 5 nM NECA as agonist, 2% HSA
[3] = IC50 (nM) (5 μM Adenosine as agonist, 2.0% HSA), 5 μM Adenosine as agonist, 2.0% HSA

Chain of A2A receptor (P29274 whole entry): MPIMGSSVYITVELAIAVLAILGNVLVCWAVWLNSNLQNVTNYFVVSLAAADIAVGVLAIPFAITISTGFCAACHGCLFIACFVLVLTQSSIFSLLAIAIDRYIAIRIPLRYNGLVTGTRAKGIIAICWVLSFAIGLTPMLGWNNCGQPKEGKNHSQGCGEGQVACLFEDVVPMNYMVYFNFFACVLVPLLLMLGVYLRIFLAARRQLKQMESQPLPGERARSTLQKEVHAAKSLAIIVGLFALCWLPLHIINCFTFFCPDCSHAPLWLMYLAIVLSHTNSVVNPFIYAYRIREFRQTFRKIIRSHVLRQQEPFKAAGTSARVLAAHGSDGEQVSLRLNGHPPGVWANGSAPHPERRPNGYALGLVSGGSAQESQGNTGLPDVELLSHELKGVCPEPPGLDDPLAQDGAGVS

| Structure (SMILES) | IC50 [1] [nM] | IC50 [2] [nM] | IC50 [3] [nM] |
| --- | --- | --- | --- |
| C[C@H](Oc1ccc(N2CCN(CCn3c(=O)sc4c3nc(N)n3nc(-c5ccco5)nc43)CC2)c(F)c1)C(=O)O (single isomer, unassigned) [Compound 38] | 0.3 | 9 | 552 |
| C[C@@H](Oc1ccc(N2CCN(CCn3c(=O)sc4c3nc(N)n3nc(-c5ccco5)nc43)CC2)c(F)c1)C(=O)O (single isomer, unassigned) [Compound 53] | – | 4 | 127 |
| C[C@H](Oc1cc(N2CCN(CCn3c(=O)sc4c3nc(N)n3nc(-c5ccco5)nc43)CC2)c(F)cc1F)C(=O)O (single isomer, unassigned) [Compound 60] | 0.8 | 4 | 240 |
| C[C@@H](Oc1cc(N2CCN(CCn3c(=O)sc4c3nc(N)n3nc(-c5ccco5)nc43)CC2)c(F)cc1F)C(=O)O (single isomer, unassigned) [Compound 61] | 0.9 | 15 | 810 |
| NC(=O)COc1ccc(N2CCN(CCn3c(=O)sc4c3nc(N)n3nc(-c5ccco5)nc43)CC2)cc1 [Compound 11, 2-(4-(4-(2-(5-amino-8-(furan-2-yl)-2-oxothiazolo[5,4-e][1,2,4]triazolo[1,5-c]pyrimidin-3(2H)-yl)ethyl)piperazin-1-yl)phenoxy)acetamide] | 2 | – | – |
| Nc1nc2c(sc(=O)n2CCN2CCN(c3ccc(OCC(O)CO)cc3)CC2)c2nc(-c3ccco3)nn12 (stereo not drawn) [Compound 12, 5-amino-3-(2-(4-(4-(2,3-dihydroxypropoxy)phenyl)piperazin-1-yl)ethyl)-8-(furan-2-yl)thiazolo[5,4-e][1,2,4]triazolo[1,5-c]pyrimidin-2(3H)-one] | 14.2 | – | – |
| NCCOc1ccc(N2CCN(CCn3c(=O)sc4c3nc(N)n3nc(-c5ccco5)nc43)CC2)cc1 [Compound 13, 5-amino-3-(2-(4-(4-(2-aminoethoxy)phenyl)piperazin-1-yl)ethyl)-8-(furan-2-yl)thiazolo[5,4-e][1,2,4]triazolo[1,5-c]pyrimidin-2(3H)-one] | 0.6 | 2 | 63 |
| NC(=O)c1ccc(N2CCN(CCn3c(=O)sc4c3nc(N)n3nc(-c5ccco5)nc43)CC2)cc1 [Compound 14, 4-(4-(2-(5-amino-8-(furan-2-yl)-2-oxothiazolo[5,4-e][1,2,4]triazolo[1,5-c]pyrimidin-3(2H)-yl)ethyl)piperazin-1-yl)benzamide] | 0.7 | 11 | 567 |
| CNC(=O)c1ccc(N2CCN(CCn3c(=O)sc4c3nc(N)n3nc(-c5ccco5)nc43)CC2)cc1 [Compound 15, 4-(4-(2-(5-amino-8-(furan-2-yl)-2-oxothiazolo[5,4-e][1,2,4]triazolo[1,5-c]pyrimidin-3(2H)-yl)ethyl)piperazin-1-yl)-N-methylbenzamide] | 2.6 | – | – |
| Nc1nc2c(sc(=O)n2CCN2CCN(c3ccc(OCCN4CCOCC4)cc3)CC2)c2nc(-c3ccco3)nn12 [Compound 16, 5-amino-8-(furan-2-yl)-3-(2-(4-(4-(2-morpholinoethoxy)phenyl)piperazin-1-yl)ethyl)thiazolo[5,4-e][1,2,4]triazolo[1,5-c]pyrimidin-2(3H)-one] | 3.2 | 14 | – |
| CN(C)CCOc1ccc(N2CCN(CCn3c(=O)sc4c3nc(N)n3nc(-c5ccco5)nc43)CC2)cc1 [Compound 17, 5-amino-3-(2-(4-(4-(2-(dimethylamino)ethoxy)phenyl)piperazin-1-yl)ethyl)-8-(furan-2-yl)thiazolo[5,4-e][1,2,4]triazolo[1,5-c]pyrimidin-2(3H)-one] | 1 | – | – |
| Nc1nc2c(sc(=O)n2CCN2CCN(c3ccc(S(N)(=O)=O)cc3)CC2)c2nc(-c3ccco3)nn12 [Compound 18, 4-(4-(2-(5-amino-8-(furan-2-yl)-2-oxothiazolo[5,4-e][1,2,4]triazolo[1,5-c]pyrimidin-3(2H)-yl)ethyl)piperazin-1-yl)benzenesulfonamide] | 1.7 | 85 | 2170 |
| CNS(=O)(=O)c1ccc(N2CCN(CCn3c(=O)sc4c3nc(N)n3nc(-c5ccco5)nc43)CC2)cc1 [Compound 19, 4-(4-(2-(5-amino-8-(furan-2-yl)-2-oxothiazolo[5,4-e][1,2,4]triazolo[1,5-c]pyrimidin-3(2H)-yl)ethyl)piperazin-1-yl)-N-methylbenzenesulfonamide] | 2.6 | – | – |
| CS(=O)(=O)c1ccc(N2CCN(CCn3c(=O)sc4c3nc(N)n3nc(-c5ccco5)nc43)CC2)cc1 [Compound 20, 5-amino-8-(furan-2-yl)-3-(2-(4-(4-(methylsulfonyl)phenyl)piperazin-1-yl)ethyl)thiazolo[5,4-e][1,2,4]triazolo[1,5-c]pyrimidin-2(3H)-one] | 1.9 | 352 | – |
| C[S+]([O-])c1ccc(N2CCN(CCn3c(=O)sc4c3nc(N)n3nc(-c5ccco5)nc43)CC2)cc1 (stereo not drawn) [Compound 21, 5-amino-8-(furan-2-yl)-3-(2-(4-(4-(methylsulfinyl)phenyl)piperazin-1-yl)ethyl)thiazolo[5,4-e][1,2,4]triazolo[1,5-c]pyrimidin-2(3H)-one] | 1.6 | 52 | 1310 |
| NC(=O)c1cccc(N2CCN(CCn3c(=O)sc4c3nc(N)n3nc(-c5ccco5)nc43)CC2)c1 [Compound 22, 3-(4-(2-(5-amino-8-(furan-2-yl)-2-oxothiazolo[5,4-e][1,2,4]triazolo[1,5-c]pyrimidin-3(2H)-yl)ethyl)piperazin-1-yl)benzamide] | 1.4 | 6 | 352 |
| Nc1nc2c(sc(=O)n2CCN2CCN(c3cccc(OCCO)c3)CC2)c2nc(-c3ccco3)nn12 [Compound 23, 5-amino-8-(furan-2-yl)-3-(2-(4-(3-(2-hydroxyethoxy)phenyl)piperazin-1-yl)ethyl)thiazolo[5,4-e][1,2,4]triazolo[1,5-c]pyrimidin-2(3H)-one] | 0.6 | – | – |
| Nc1nc2c(sc(=O)n2CCN2CCN(c3ccc(S(=O)(=O)N4CCNCC4)cc3F)CC2)c2nc(-c3ccco3)nn12 [Compound 28, 5-amino-3-(2-(4-(2-fluoro-4-(piperazin-1-ylsulfonyl)phenyl)piperazin-1-yl)ethyl)-8-(furan-2-yl)thiazolo[5,4-e][1,2,4]triazolo[1,5-c]pyrimidin-2(3H)-one] | 0.2 | 4 | 115 |
| CS(=O)(=O)c1ccc(N2CCN(CCn3c(=O)sc4c3nc(N)n3nc(-c5ccco5)nc43)CC2)c(F)c1 [Compound 29, 5-amino-3-(2-(4-(2-fluoro-4-(methylsulfonyl)phenyl)piperazin-1-yl)ethyl)-8-(furan-2-yl)thiazolo[5,4-e][1,2,4]triazolo[1,5-c]pyrimidin-2(3H)-one] | 0.4 | 11 | 350 |
| Nc1nc2c(sc(=O)n2CCN2CCN(c3c(F)cc(OCC(=O)O)cc3F)CC2)c2nc(-c3ccco3)nn12 [Compound 36, 2-(4-(4-(2-(5-amino-8-(furan-2-yl)-2-oxothiazolo[5,4-e][1,2,4]triazolo[1,5-c]pyrimidin-3(2H)-yl)ethyl)piperazin-1-yl)-3,5-difluorophenoxy)acetic acid] | 0.7 | 8 | 260 |
| CC(Oc1ccc(N2CCN(CCn3c(=O)sc4c3nc(N)n3nc(-c5ccco5)nc43)CC2)c(F)c1)C(=O)O (stereo not drawn) [Compound 37, 2-(4-(4-(2-(5-amino-8-(furan-2-yl)-2-oxothiazolo[5,4-e][1,2,4]triazolo[1,5-c]pyrimidin-3(2H)-yl)ethyl)piperazin-1-yl)-3-fluorophenoxy)propanoic acid] | 0.8 | 9 | 398 |
| Nc1nc2c(sc(=O)n2CCN2CCN(c3ccc(OCCCC(=O)O)cc3F)CC2)c2nc(-c3ccco3)nn12 [Compound 41, 4-(4-(4-(2-(5-amino-8-(furan-2-yl)-2-oxothiazolo[5,4-e][1,2,4]triazolo[1,5-c]pyrimidin-3(2H)-yl)ethyl)piperazin-1-yl)-3-fluorophenoxy)butanoic acid] | 0.8 | 14 | 423 |
| Nc1nc2c(sc(=O)n2CCN2CCN(c3ccc(F)c(OCC(=O)O)c3F)CC2)c2nc(-c3ccco3)nn12 [Compound 42, 2-(3-(4-(2-(5-amino-8-(furan-2-yl)-2-oxothiazolo[5,4-e][1,2,4]triazolo[1,5-c]pyrimidin-3(2H)-yl)ethyl)piperazin-1-yl)-2,6-difluorophenoxy)acetic acid] | 0.4 | 19 | 332 |
| CNCCN(C)C(=O)COc1ccc(N2CCN(CCn3c(=O)sc4c3nc(N)n3nc(-c5ccco5)nc43)CC2)c(F)c1 [Compound 58, 2-(4-(4-(2-(5-amino-8-(furan-2-yl)-2-oxothiazolo[5,4-e][1,2,4]triazolo[1,5-c]pyrimidin-3(2H)-yl)ethyl)piperazin-1-yl)-3-fluorophenoxy)-N-methyl-N-(2-(methylamino)ethyl)acetamide] | 0.3 | 1 | 41 |
| CC(C)(Oc1cc(N2CCN(CCn3c(=O)sc4c3nc(N)n3nc(-c5ccco5)nc43)CC2)c(F)cc1F)C(=O)O [Compound 59, 2-(5-(4-(2-(5-amino-8-(furan-2-yl)-2-oxothiazolo[5,4-e][1,2,4]triazolo[1,5-c]pyrimidin-3(2H)-yl)ethyl)piperazin-1-yl)-2,4-difluorophenoxy)-2-methylpropanoic acid] | 0.9 | 21 | 1070 |
